Test results from US6630075B2, “Use of fluorinated ketones in fire extinguishing compositions” (3M Innovative Properties Company, priority 1999, dated 2003).

How the values were obtained:
[1] = total flooding evaluation in 1.28 m^3 enclosure (Ohmic Heating Test procedure); conditions: 1000 g agent, nitrogen 50 psi
Description: This example was run to evaluate the fire performance of a fluorinated ketone of this invention, CF3CF2C(O)CF(CF3)2 (the fluorinated ketone as prepared in Example 1), in a total flooding evaluation for a clean extinguishing agent.
For this evaluation, a 1.28 m^3 (0.915 m×0.915 m×1.525 m) steel reinforced polycarbonate “box” enclosure was used, into which a fixed piping system, normally designed to deliver a gaseous clean extinguishing agent, was filled instead with a composition that is liquid at room temperature and discharged into the “box” to extinguish a fire. Using this modified system and procedure, the liquid fluorinated ketone used, CF3CF2C(O)CF(CF3)2, could be discharged into the enclosure indirectly in the same manner as could a gaseous clean extinguishing agent and thus allow the liquid agent to extinguish an obstructed fire located remotely in the enclosure.
In this modified procedure, a Swagelok Whitey 2000 mL cylinder was filled with 1000 g of CF3CF2C(O)CF(CF3)2 and was super-pressurized with nitrogen to 50 psi (345 kPa). Attached to the bottom of the cylinder was a 0.25 in (0.6 cm) Swagelok Whitey SS1RFA-A stainless steel angle valve, to which was fixed 34 in (86.4 cm) of nominal 0.25 in (6.5 mm) piping arrangement, including a 0.25 in (6.5 mm) Jamesbury Clincher ¼-turn ball valve. The piping was connected to a Bete NF 0500 square edge orifice nozzle. […]

[2] = Micro-Cup Burner Test (extinguishing concentration; Mass Ratio Calculation vs HALON 1211)
Description: The Micro-Cup Burner Test is a laboratory test which measures the extinguishing ability of an agent based on the quantity of agent required to extinguish a fire under the following test conditions. The Micro-Cup Burner Test utilizes a quartz concentric-tube laminar-diffusion flame burner (micro-cup burner, of similar design to the above-described cup apparatus) aligned vertically with all flows upward. A fuel, typically propane unless otherwise specified, flows at 10.0 sccm (standard cubic centimeters per minute) through a 5-mm I.D. inner quartz tube which is centered in a 15-mm I.D. quartz chimney. The chimney extends 4.5 cm above the inner tube. Air flows through the annular region between the inner tube and the chimney at 1000 sccm. Prior to the addition of extinguishing composition, a visually stable flame is supported on top of the inner tube, and the resulting combustion products flow out through the chimney. An extinguishing composition to be evaluated is introduced into the air stream upstream of the burner. Liquid compositions are introduced by a syringe pump (which is calibrated to within 1%) and are volatilized in a heated trap. Gaseous compositions are introduced via a mass-flow controller to the air stream upstream from the burner. For consistency, the air-gaseous composition mixture then flows through the heated trap prior to its introduction to the flame burner. All gas flows are maintained by electronic mass-flow controllers which are calibrated to within 2%. The fuel is ignited to produce a flame and is allowed to burn for 90 seconds. After 90 seconds, a specific flow rate of composition is introduced, and the time required for the flame to be extinguished is recorded. The reported extinguishing concentrations are the recorded volume % of extinguishing composition in air required to extinguish the flame within an average time of 30 seconds or less.
The above-mentioned cup burner test measures the performance of an extinguishing composition by determining the minimum volume percent of composition in air required to extinguish a test fire. However, it is often desirable to directly compare the fire performance of an experimental extinguishing composition (e.g., a fluorinated ketone) against the performance of a state-of-the-art extinguishing composition, such as HALON™ 1211 fire extinguishing agent (CF2ClBr, a bromochlorofluorocarbon). One way to make such a comparison is to derive the mass ratio of experimental composition to HALON™ 1211 fire extinguishing agent from the volume percentages of each composition required for extinguishing. The mass ratio can be calculated by dividing the experimental composition's extinguishing volume percent by the HALON™ 1211 agent's extinguishing volume percent and multiplying the resulting quotient (which, according to the ideal gas law, also represents the ratio of mole percents) times the weight average molecular weight of the experimental composition divided by the molecular weight of HALON™ 1211 agent (165 g/mole).
In Comparative Example C1, the extinguishing concentration (volume % in air) of HALON™ 1211 fire extinguishing agent was determined as using the Micro-Cup Burner Test.
In Examples 1-16, the extinguishing concentration of several perfluorinated ketones was also determined using the Micro-Cup Burner Test. The mass ratio as compared to HALON™ 1211 fire extinguishing agent was then calculated using the Mass Ratio Calculation.
In Comparative Examples C2-C11, various fluorinated extinguishing compositions known in the art (hydrofluorocarbons, perfluorocarbons, hydrochlorofluorocarbons, hydrofluoroethers, and iodofluorocarbons) were evaluated for their extinguishing concentration, and subsequently their mass ratios were calculated with respect to HALON™ 1211 agent. […]

mice = test: short term inhalation tests with mice; format: in vivo; conditions: mice exposed for four hours at 50,000 ppm in air
[3] = manual suppression full-scale streaming test, UL Standard 711 pan fires; conditions: heptane, 60 sec pre-burn
Description: These two examples were run to illustrate the fire performance of a fluorinated ketone of this invention, CF3CF2C(O)CF(CF3)2 (the fluorinated ketone as prepared in Example 1), using a manual suppression full-scale streaming test for a clean extinguishing agent.
For each example, a standard off-the-shelf Amerex 131b HALON™ 1211 handheld extinguisher was used to introduce the extinguishing composition to the fire. The extinguisher was equipped with a standard ½ in (1.3 cm) nominal diameter rubber hose with a clean extinguishing agent nozzle attached to the end. In each case, the composition was super-pressurized using dry nitrogen at 130-150 psi (900-1040 kPa).
Both fire extinguishing tests were run following essentially the same test procedures and conditions as outlined in UL Standard 711 for the 2B and 5B pan fire scenarios, as normally conducted for UL approval at Underwriters Laboratories, Inc., Northbrook, Ill. The only deviation from that test procedure was that the fire tests for these examples were conducted outside. The fire test pans for the respective fires were sized to be 2.5 times larger than the ultimate extinguisher rating. For example, a 2B UL-rated extinguisher rating requires a skilled firefighter to be able to extinguish a 5 ft^2 (0.46 m^2) fire, a 5B UL-rated extinguisher rating requires extinguishing a 12.5 ft^2(1.16 m^2) fire, etc. For both examples, the UL specified pans were 12 in (30 cm) deep, into which was introduced 4.0 in (10 cm) of water, onto which was introduced 2 in (5 cm) of commercial grade heptane for fuel, leaving a 6 in (15 cm) freeboard above the fuel surface. Each fire was allowed to pre-burn 60 seconds before extinguishing commenced, using an agent flow rate of 0.75-0.80 kg/sec. The discharge time for the extinguishing of the fire was recorded as was the amount of agent discharged.

O=C(C(F)(F)C(F)(F)F)C(F)(C(F)(F)F)C(F)(F)F [Example 1, 1,1,1,2,4,4,5,5,5-nonafluoro-2-trifluoromethyl-butan-3-one]
time to extinguishing of the obstructed fire from the beginning of agent discharge [1]: ≤ 35 s | Mass Ratio to HALON™ 1211 ([2]; calculated from extinguishing volume % and molecular weight relative to HALON 1211 (165 g/mole)): 1.86 | Ext. Conc. (vol %) ([2]; volume % in air required to extinguish the flame within an average time of 30 seconds or less, propane fuel): 3.5 vol % | acute toxicity (mice): low acute toxicity | Agent Discharged ([3]; UL 2B pan): 2.59 kg | Discharge Time ([3]; UL 2B pan): 3.5 s | Agent Discharged ([3]; UL 5B pan): 2.87 kg | Discharge Time ([3]; UL 5B pan): 3.8 s
